Laboratory results from publication PMC10169861, “Structural mechanism of human oncochannel TRPV6 inhibition by the natural phytoestrogen genistein” (Nature Communications, 2023).
Where a chain is given by its changes, count along the chain named. Several values for one entry are separate records, joined by “and”; a condition that tells them apart may be missing. Equal entries are not always repeated.

Tests used:
[1] = biological target: T1, wild-type human TRPV6 (hTRPV6) (Homo sapiens, UniProt Q9H1D0); test: Whole-cell patch-clamp recording of hTRPV6-mediated currents in HEK 293S cells; format: cell-based; settings: for TRPV6-mediated current amplitude at −60 mV, normalized to the value in the absence of genistein: WT
T1 construct: Full-length wild-type or mutant human TRPV6 was expressed in HEK 293S cells as described above; expressed in transfected cells; host or cells: HEK 293S GnTI- cells, baculovirus (BacMam) transduction
T1 sequence (Q9H1D0 41-765 limits assumed): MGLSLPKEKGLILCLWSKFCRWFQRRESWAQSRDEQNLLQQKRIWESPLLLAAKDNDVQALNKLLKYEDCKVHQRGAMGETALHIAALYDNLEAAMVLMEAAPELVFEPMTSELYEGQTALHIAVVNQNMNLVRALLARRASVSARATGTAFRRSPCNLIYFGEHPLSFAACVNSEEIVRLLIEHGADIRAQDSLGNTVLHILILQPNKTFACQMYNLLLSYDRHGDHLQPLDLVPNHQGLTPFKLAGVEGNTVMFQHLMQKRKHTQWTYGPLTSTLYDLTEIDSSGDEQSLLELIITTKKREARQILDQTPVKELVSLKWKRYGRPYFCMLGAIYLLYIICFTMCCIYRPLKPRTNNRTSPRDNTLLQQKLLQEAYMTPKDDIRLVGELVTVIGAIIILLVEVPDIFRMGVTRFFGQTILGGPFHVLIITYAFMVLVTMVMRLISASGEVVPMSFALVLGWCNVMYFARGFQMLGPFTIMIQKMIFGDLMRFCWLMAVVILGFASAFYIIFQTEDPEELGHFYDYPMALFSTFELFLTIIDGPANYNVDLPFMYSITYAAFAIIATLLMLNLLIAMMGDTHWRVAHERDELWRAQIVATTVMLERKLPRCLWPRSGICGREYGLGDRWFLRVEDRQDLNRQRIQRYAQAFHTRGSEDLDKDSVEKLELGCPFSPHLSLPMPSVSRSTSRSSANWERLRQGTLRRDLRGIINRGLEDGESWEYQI

[2] = biological target: T2, H582A-H587A mutant TRPV6 (Homo sapiens, UniProt Q9H1D0, H622A/H627A); test: Fura-2-based measurement of Ca2+ uptake, H582A-H587A mutant channels; format: cell-based; settings: for normalized change in F340/F380 (Ca2+ uptake relative to no genistein): H582A-H587A
T2 construct: Full-length wild-type or mutant human TRPV6 was expressed in HEK 293S cells as described above; expressed in transfected cells; host or cells: HEK 293S GnTI- cells, baculovirus (BacMam) transduction
T2 sequence (Q9H1D0 41-765 H622A/H627A limits assumed): T1 sequence (Q9H1D0 41-765 limits assumed) with H582A, H587A

[3] = biological target: T1, wild-type human TRPV6 (hTRPV6); test: Fura-2-based ratiometric measurement of Ca2+ uptake in hTRPV6-expressing HEK 293S cells; format: cell-based; settings: for normalized change in F340/F380 (Ca2+ uptake relative to no genistein): WT
[4] = biological target: T3, H587A mutant TRPV6 (Homo sapiens, UniProt Q9H1D0, H627A); test: Fura-2-based measurement of Ca2+ uptake, H587A mutant channels; format: cell-based; settings: for normalized change in F340/F380 (Ca2+ uptake relative to no genistein): H587A
T3 construct: Full-length wild-type or mutant human TRPV6 was expressed in HEK 293S cells as described above; expressed in transfected cells; host or cells: HEK 293S GnTI- cells, baculovirus (BacMam) transduction
T3 sequence (Q9H1D0 41-765 H627A limits assumed): T1 sequence (Q9H1D0 41-765 limits assumed) with H587A

[5] = biological target: T4, H582A mutant TRPV6 (Homo sapiens, UniProt Q9H1D0, H622A); test: Fura-2-based measurement of Ca2+ uptake, H582A mutant channels; format: cell-based; settings: for normalized change in F340/F380 (Ca2+ uptake relative to no genistein): H582A
T4 construct: Full-length wild-type or mutant human TRPV6 was expressed in HEK 293S cells as described above; expressed in transfected cells; host or cells: HEK 293S GnTI- cells, baculovirus (BacMam) transduction
T4 sequence (Q9H1D0 41-765 H622A limits assumed): T1 sequence (Q9H1D0 41-765 limits assumed) with H582A

[6] = biological target: human TRPV6 (human); test: cryo-EM structure; purified hTRPV6 in 150 mM NaCl, 20 mM Tris-HCl pH 8.0, 1 mM βME, 0.01% GDN, 0.001% CHS, with 2 mM genistein; two populations of particles: open (C4, 2.71 Å) and genistein-bound (C1, 2.66 Å)
[7] = Conc 10, individual experiments
[8] = Conc 30, individual experiments
[9] = Conc 100, individual experiments
[10] = Conc 300, individual experiments
[11] = Conc 1000, individual experiments
[12] = Conc 3000, individual experiments
[13] = Conc 10000, individual experiments

Compound: O=c1c(-c2ccc(O)cc2)coc2cc(O)cc(O)c12 [genistein, 4′,5,7-trihydroxyisoflavone]
- IC50 [1]: 40.7 ± 2.6 µM
- inhibition at 50 µM ([1]; HEK293S, 50 µM genistein, –60 mV membrane potential, mean ± SEM, n = 13, read-out: inhibition of the hTRPV6-mediated current): 54 ± 4%
- TRPV6-mediated current amplitude at −60 mV, normalized to the value in the absence of genistein ([1]; Conc 6.25 (µM per Supplementary Fig. 1), individual measurements): 0.8818 and 0.9418 and 0.9228 and 0.9734 and 0.9342 and 0.9778 and 0.9793
- TRPV6-mediated current amplitude at −60 mV, normalized to the value in the absence of genistein ([1]; Conc 12.5, individual measurements): 0.8695 and 0.8933 and 0.8898 and 0.8819 and 0.904 and 0.9294 and 0.929
- TRPV6-mediated current amplitude at −60 mV, normalized to the value in the absence of genistein ([1]; Conc 25, individual measurements): 0.744 and 0.6559 and 0.7679 and 0.6876 and 0.7485 and 0.5641 and 0.5617
- TRPV6-mediated current amplitude at −60 mV, normalized to the value in the absence of genistein ([1]; Conc 50, individual measurements): 0.3726 and 0.4985 and 0.3764 and 0.4722 and 0.3722 (2×)
- Hill coefficient nHill, current inhibition ([1]; current amplitude at −60 mV, logistic fit, n = 7): 1.80 and 1.80 ± 0.13
- IC50 [2]: 318 ± 45 µM
- Hill coefficient nHill ([2]; H582A-H587A mutant, n = 3): 0.71 ± 0.06
- normalized change in F340/F380 (Ca2+ uptake relative to no genistein) [2, 7]: 0.8831 and 0.8274 and 0.7934
- normalized change in F340/F380 (Ca2+ uptake relative to no genistein) [2, 8]: 0.9307 and 0.8133 and 0.7372
- normalized change in F340/F380 (Ca2+ uptake relative to no genistein) [2, 9]: 0.6996 and 0.5804 and 0.6176
- normalized change in F340/F380 (Ca2+ uptake relative to no genistein) [2, 10]: 0.6004 and 0.5392 and 0.6135 and 0.4739
- normalized change in F340/F380 (Ca2+ uptake relative to no genistein) [2, 11]: 0.3135 and 0.3303
- normalized change in F340/F380 (Ca2+ uptake relative to no genistein) [2, 12]: 0.1423 and 0.1604 and 0.1695
- normalized change in F340/F380 (Ca2+ uptake relative to no genistein) [2, 13]: 0.08246 and 0.05437 and 0.05709
- normalized change in F340/F380 (Ca2+ uptake relative to no genistein) ([3]; Conc 10 (µM per Fig. 1c), individual experiments): 0.9427 and 0.8061 and 0.8429
- normalized change in F340/F380 (Ca2+ uptake relative to no genistein) [3, 8]: 0.7049 and 0.7764 and 0.7537
- normalized change in F340/F380 (Ca2+ uptake relative to no genistein) [3, 9]: 0.5343 and 0.4706 and 0.5414
- normalized change in F340/F380 (Ca2+ uptake relative to no genistein) [3, 10]: 0.3064 and 0.3178 and 0.351
- normalized change in F340/F380 (Ca2+ uptake relative to no genistein) [3, 11]: 0.1486 and 0.1458 and 0.1663
- normalized change in F340/F380 (Ca2+ uptake relative to no genistein) [3, 12]: 0.07643 and 0.09271
- IC50 ([3]; wild-type, 10 mM Ca2+ after pre-incubation, mean ± SEM, n = 3, read-out: IC50, inhibition of hTRPV6-mediated Ca2+ uptake): 113 µM
- Hill coefficient nHill, inhibition of Ca2+ uptake ([3]; wild-type, n = 3): 0.77 ± 0.02
- IC50 [4]: 267 ± 29 µM
- Hill coefficient nHill ([4]; H587A mutant, n = 3): 0.67 ± 0.03
- normalized change in F340/F380 (Ca2+ uptake relative to no genistein) [4, 7]: 0.9155 and 0.8981 and 0.9014
- normalized change in F340/F380 (Ca2+ uptake relative to no genistein) [4, 8]: 0.7349 and 0.8633 and 0.7848
- normalized change in F340/F380 (Ca2+ uptake relative to no genistein) [4, 9]: 0.5614 and 0.5516 and 0.49
- normalized change in F340/F380 (Ca2+ uptake relative to no genistein) [4, 10]: 0.505 and 0.498 and 0.5741
- normalized change in F340/F380 (Ca2+ uptake relative to no genistein) [4, 11]: 0.2958 and 0.3277 and 0.2981
- normalized change in F340/F380 (Ca2+ uptake relative to no genistein) [4, 12]: 0.1683 and 0.1914 and 0.1575
- normalized change in F340/F380 (Ca2+ uptake relative to no genistein) [4, 13]: 0.08605 and 0.071 and 0.06959
- IC50 [5]: 184 ± 24 µM
- Hill coefficient nHill ([5]; H582A mutant, n = 3): 0.73 ± 0.04
- normalized change in F340/F380 (Ca2+ uptake relative to no genistein) ([5]; Conc 3, individual experiments): 1.0287 and 0.8943 and 0.9077
- normalized change in F340/F380 (Ca2+ uptake relative to no genistein) [5, 7]: 0.885 and 0.8976 and 0.8985
- normalized change in F340/F380 (Ca2+ uptake relative to no genistein) [5, 8]: 0.8976 and 0.8451 and 0.809
- normalized change in F340/F380 (Ca2+ uptake relative to no genistein) [5, 9]: 0.6519 and 0.7074 and 0.5784
- normalized change in F340/F380 (Ca2+ uptake relative to no genistein) [5, 10]: 0.3755 and 0.336 and 0.3944
- normalized change in F340/F380 (Ca2+ uptake relative to no genistein) [5, 11]: 0.155 and 0.378 and 0.368
- normalized change in F340/F380 (Ca2+ uptake relative to no genistein) [5, 12]: 0.1504 and 0.2134 and 0.1508

Compound: human TRPV6 (natural protein)
- stoichiometry N [6]: 4
